Measurements: ChEMBL document CHEMBL4052726, “Design, synthesis, and biological evaluation of aryl N-methoxyamide derivatives as GPR119 agonists” (Bioorg Med Chem Lett, 2017)
Active and inactive are the calls of the source. The rule behind the calls is not given here.

How the values were obtained:
[1] = target: T1, Glucose-dependent insulinotropic receptor (Homo sapiens) (UniProt Q8TDV5); assay: Activation of human GPR119 expressed in CHOK1 cells harboring CRE-luciferase at 1 uM after 6 hrs by luciferase reporter gene assay relative to GSK1292263; format: functional, cell-based
T1 sequence (whole entry): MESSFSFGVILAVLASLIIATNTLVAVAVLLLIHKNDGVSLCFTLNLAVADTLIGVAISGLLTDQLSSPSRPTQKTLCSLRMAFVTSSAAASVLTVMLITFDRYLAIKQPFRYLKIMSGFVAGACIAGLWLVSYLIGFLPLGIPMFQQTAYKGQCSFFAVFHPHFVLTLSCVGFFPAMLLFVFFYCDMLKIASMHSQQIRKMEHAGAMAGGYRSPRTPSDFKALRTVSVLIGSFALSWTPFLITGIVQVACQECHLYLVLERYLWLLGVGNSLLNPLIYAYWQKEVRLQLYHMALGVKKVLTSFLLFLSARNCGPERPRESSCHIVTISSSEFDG

[2] = target: T2, Glucose-dependent insulinotropic receptor (Homo sapiens, UniProt Q8TDV5); assay: Agonist activity at human GPR119 expressed in CHOK1 cells harboring CRE-luciferase after 6 hrs by luciferase reporter gene assay; format: functional, cell-based
T2 sequence (Q8TDV5 whole entry): T1 sequence (whole entry)

Mus musculus = assay: Decrease in plasma glucose AUC in C57BL/6 mouse at 30 to 50 mg/kg administered orally followed by glucose challenge after 30 mins by OGTT; format: functional, organism-based
[3] = target: T1, Glucose-dependent insulinotropic receptor (Homo sapiens); assay: Agonist activity at GPR119 in human NCI-H716 cells assessed as increase in forskolin-induced GLP-1 secretion by ELISA; format: cell-based

`CON(C)C(=O)c1ccc(-c2csc3c(N(C)C4CCN(C(=O)OC(C)C)CC4)ncnc23)cc1F` showed an Activity [1] of 90% and an EC50 [2] of 67 nM.
With `CCc1cnc(N2CCC(N(C)c3ncnc4c(-c5ccc(C(=O)N(C)OC)c(F)c5)csc34)CC2)nc1` the Activity [1] was 81%.
In the case of `CN(c1ncnc2c(-c3ccc(C(=O)N4CCCCO4)cc3)csc12)C1CCN(C(=O)OC(C)(C)C)CC1`, the Activity [1] is reported as 66%.
Work on `CON(C)C(=O)c1ccc(-c2ccc(OCC3CCN(C(=O)OC(C)C)CC3)cn2)cc1F` yielded an Activity [1] of 96% and an EC50 [2] of 92 nM.
`CON(C)C(=O)c1ccc(-c2ccc(OCC3CCN(C(=O)OC(C)C)CC3)cn2)cc1` showed an Activity [1] of 80% and an EC50 [2] of 155 nM.
`CON(C)C(=O)c1ccc(-c2csc3c(OC4CCN(C(=O)OC(C)(C)C)CC4)ncnc23)cc1F` was tested, and the Activity [1] was 88% and the EC50 [2] was 57 nM.
Work on `CON(C)C(=O)c1ccc(-c2csc3c(N(C)C4CCN(C(=O)OC(C)C)CC4)ncnc23)cc1` yielded an Activity [1] of 82% and an EC50 [2] of 156 nM.
In the case of `CON(C)C(=O)c1ccc(-c2ccc(OCC3CCN(C(=O)OC(C)(C)C)CC3)cn2)cc1F`, the Activity [1] is reported as 114% and the EC50 [2] is reported as 73 nM.
Compound `CCc1cnc(N2CCC(COc3ccc(-c4ccc(C(=O)N(C)OC)cc4)nc3)CC2)nc1` has an Activity [1] of 95% and an EC50 [2] of 319 nM.
Compound `CCc1cnc(N2CCC(N(C)c3ncnc4c(-c5ccc(C(=O)N(C)OC)cc5)csc34)CC2)nc1` has an Activity [1] of 80%.
With `CONC(=O)c1ccc(-c2csc3c(N(C)C4CCN(C(=O)OC(C)(C)C)CC4)ncnc23)cc1` the Activity [1] was 82%.
`CC(C)(C)OC(=O)N1CCC(COc2ccc(-c3ccc(C(=O)NOCc4ccccc4)cc3)nc2)CC1` showed an Activity [1] of 69%.
For `CCc1cnc(N2CCC(N(C)c3ncnc4c(-c5ccc(C(=O)NOCc6ccccc6)cc5)csc34)CC2)nc1`, the Activity [1] was 41%.
For `CC(C)OC(=O)N1CCC(N(C)c2ncnc3c(-c4ccc(C(=O)NOCc5ccccc5)cc4)csc23)CC1`, the Activity [1] was 53%.
`CC(C)(C)OC(=O)N1CCC(COc2ccc(-c3ccc(C(=O)N4CCCCO4)cc3)nc2)CC1` gave an Activity [1] of 73% and an EC50 [2] of 321 nM.
Work on `CCONC(=O)c1ccc(-c2csc3c(N(C)C4CCN(C(=O)OC(C)(C)C)CC4)ncnc23)cc1` yielded an Activity [1] of 73%.
In the case of `CCc1cnc(N2CCC(COc3ccc(-c4ccc(C(=O)N(C)OC)c(F)c4)nc3)CC2)nc1`, the Activity [1] is reported as 100%, the EC50 [2] is reported as 77 nM and the Activity (Mus musculus) is reported as “Active”. For the same compound, the Activity [3] was “Active”.
In the case of `CCc1cnc(N2CCC(Oc3ncnc4c(-c5ccc(C(=O)N(C)OC)cc5)csc34)CC2)nc1`, the Activity [1] is reported as 82% and the EC50 [2] is reported as 199 nM.
For `CON(C)C(=O)c1ccc(-c2csc3c(N(C)C4CCN(C(=O)OC(C)(C)C)CC4)ncnc23)cc1F`, the Activity [1] was 87% and the EC50 [2] was 53 nM.
`CON(C)C(=O)c1ccc(-c2csc3c(N(C)C4CCN(C(=O)OC(C)(C)C)CC4)ncnc23)cc1` showed an Activity [1] of 105% and an EC50 [2] of 98 nM.
In the case of `CON(C)C(=O)c1ccc(-c2csc3c(OC4CCN(C(=O)OC(C)(C)C)CC4)ncnc23)cc1`, the Activity [1] is reported as 100% and the EC50 [2] is reported as 64 nM.
Compound `CN(c1ncnc2c(-c3ccc(C(=O)NOCc4ccccc4)cc3)csc12)C1CCN(C(=O)OC(C)(C)C)CC1` has an Activity [1] of 81% and an EC50 [2] of 83 nM.
For `CON(C)C(=O)c1ccc(-c2ccc(OCC3CCN(C(=O)OC(C)(C)C)CC3)cn2)cc1`, the Activity [1] was 106% and the EC50 [2] was 171 nM.
`CCc1cnc(N2CCC(Oc3ncnc4c(-c5ccc(C(=O)N(C)OC)c(F)c5)csc34)CC2)nc1` was tested, and the Activity [1] was 100% and the EC50 [2] was 105 nM.
